For orientation: EC50 means the midpoint of the concentration-response curve.

The structures appear in SMILES notation. Square brackets hold non-standard residues; d marks the D form. Peptide text beside a SMILES is read from it. d(hPhe) = N[C@H](CCc1ccccc1)C(=O)O; Aib = CC(C)(N)C(=O)O

Sequence of Growth hormone secretagogue receptor type 1 (Q92847 whole entry): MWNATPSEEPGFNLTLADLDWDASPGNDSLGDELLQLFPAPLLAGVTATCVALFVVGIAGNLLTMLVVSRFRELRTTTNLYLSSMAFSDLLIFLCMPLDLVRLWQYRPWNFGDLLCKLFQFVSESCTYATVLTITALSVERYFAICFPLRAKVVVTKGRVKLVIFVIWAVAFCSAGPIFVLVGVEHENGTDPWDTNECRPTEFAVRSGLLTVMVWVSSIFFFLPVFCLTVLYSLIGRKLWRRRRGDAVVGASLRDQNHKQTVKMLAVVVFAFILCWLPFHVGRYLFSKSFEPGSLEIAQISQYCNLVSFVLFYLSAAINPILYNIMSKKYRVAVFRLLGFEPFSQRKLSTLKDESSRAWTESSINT

One assay addresses Growth hormone secretagogue receptor type 1 (Homo sapiens, UniProt Q92847). Nature of the assay: Agonist activity at human GHS-R1.
Conditions: not given
Format: functional.
On to `CC(C)(N)C(=O)N[C@H](CCCc1ccccc1)C(=O)N1CCC2(CC1)C[S+]([O-])c1ccccc12` (some centres not stated), for which the “Log EC50” value is reported as -8.6.

Still in this assay, the particulars now being: read-out: EC50.
Take `O=C(N[C@H](Cc1ccc2ccccc2c1)C(=O)N[C@@H](CO)Cc1c[nH]c2ccccc12)C1CCNCC1`: the EC50 amounted to 10 nM.
As to `CNC(C)(C)C/C=C/C(=O)N(C)[C@H](Cc1ccc2ccccc2c1)C(=O)N(C)CCc1ccccc1`, the concentration giving a half-maximal response (EC50) is 3 nM.
Same read-out and setting: the figure for `NCCNC(=O)[C@@H](Cc1cccc2ccccc12)NC(=O)CCN1C(=O)CCS(=O)(=O)c2ccccc21` is 10 nM; for `NCC(O)CNC(=O)[C@@H](Cc1cccc2ccccc12)NC(=O)CCCN1C(=O)CCSc2ccccc21` (some centres not stated) it is 1 nM.
Still for that read-out and setting: the figure for `NCCCCNC(=O)[C@@H](Cc1ccc2ccccc2c1)NC(=O)[C@@H](Cc1ccc2ccccc2c1)NC(=O)C1CCNCC1` is 17 nM; for `NC(=O)[C@@H](NC(=O)[C@@H](Cc1ccc2ccccc2c1)NC(=O)[C@@H](Cc1ccc2ccccc2c1)NC(=O)C1CCNCC1)c1ccccc1` it is 0.28 nM; for `O=C(N[C@H](Cc1ccc2ccccc2c1)C(=O)N[C@@H](CO)Cc1ccc2ccccc2c1)C1CCNCC1` it is 1.8 nM.
The same measure, in the same setting: the figure for `COC(=O)CS(=O)(=O)Nc1ccccc1N1CCN(C(=O)[C@@H](CCCc2ccccc2)NC(=O)C(C)(C)N)CC1` is 4.5 nM; for `CCNC(=O)[C@]1(Cc2ccccc2)CCCN(C(=O)[C@@H](Cc2c[nH]c3ccccc23)NC(=O)C(C)(C)N)C1` it is 0.8 nM; for `CC(C)(N)C(=O)N[C@H](CCCc1ccccc1)C(=O)N1CCN(c2ccccc2NS(=O)(=O)CC(=O)O)CC1` it is 2.3 nM.
Consider `CC(C)(N)C(=O)N[C@H](CCCc1ccccc1)C(=O)N1CCN(c2ccccc2NS(C)(=O)=O)CC1`, for which the EC50 came to 6.3 nM.
For the compound `CC(C)S(=O)(=O)Nc1ccccc1N1CCN(C(=O)[C@@H](CCCc2ccccc2)NC(=O)C(C)(C)N)CC1`, the EC50 came to 2.8 nM.
For `Cc1ccccc1N1CCN(C(=O)[C@@H](CCCc2ccccc2)NC(=O)C(C)(C)N)CC1`, the half-maximal effective concentration (EC50) turned out to be 100 nM.
On the same count and under the same terms, to `CCN(CC)CCN1C(=O)[C@@](O)(c2ccc3ccccc3c2)c2c(Br)cccc21` belongs 77 nM; to `CCN(CC)CCN1C(=O)[C@@](O)(c2ccc3ccccc3c2)c2c1cc(C#CCCC(=O)N1CCOCC1)cc2C(F)(F)F`, 30 nM.
The same measure, in the same setting: to `CCN(CC)CCN1C(=O)[C@@](O)(c2ccc3ccccc3c2)c2c1cc(C#CCCC(=O)N(C)C)cc2C(F)(F)F` belongs 30 nM; to `CCN(CC)CCN1C(=O)[C@@](O)(c2ccc3ccccc3c2)c2c1cc(C(N)=O)cc2C(F)(F)F`, 18 nM; to `CCOC(=O)[C@]1(Cc2ccccc2)CCCN(C(=O)[C@@H](Cc2c[nH]c3ccccc23)NC(=O)C(C)(C)N)C1`, 1.6 nM.
On the same count and under the same terms, to `CCOC(=O)[C@@H](CCc1ccccc1)NC(=O)[C@@H](Cc1c[nH]c2ccccc12)NC(=O)C(C)(C)N` (H-[Aib]-[dW]-[d(hPhe)]-OEt) belongs 3 nM.

The assay is the same for the next values; noted with them: read-out: Log EC50 (converted).
For `NCC(O)CNC(=O)[C@@H](Cc1cccc2ccccc12)NC(=O)CCCN1C(=O)CCSc2ccccc21` (some centres not stated), the EC50 is 2 nM.
The same measure, in the same setting: to `Cc1ccccc1N1CCN(C(=O)[C@@H](CCCc2ccccc2)NC(=O)C(C)(C)N)CC1` belongs 14.1 nM.

These data come from ChEMBL document CHEMBL1139174, “Modeling of human ghrelin receptor (hGHS-R1a) in its close state and validation by molecular docking” (Bioorg Med Chem, 2007).
